Assay results taken from PubChem BioAssay (NCI).
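Briefly, cells in 96-well plates were exposed to five compound concentrations for 48 h, and endpoints were estimated by linear interpolation. TGI: total growth inhibition.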

Experiments:
Assay in all cases: inhibition of tumour cell growth, NCI panel, 48 h
DLD-1 colon = tested on: DLD-1 colon
U251 CNS = tested on: U251 CNS
HT29 colon = tested on: HT29 colon
OVCAR-8 ovarian = tested on: OVCAR-8 ovarian
MDA-MB-435 = tested on: MDA-MB-435
A498 renal = tested on: A498 renal
A549 NSCLC = tested on: A549 NSCLC
OVCAR-5 ovarian = tested on: OVCAR-5 ovarian
OVCAR-4 ovarian = tested on: OVCAR-4 ovarian
BT-549 breast = tested on: BT-549 breast
NCI-H23 lung = tested on: NCI-H23 lung
NCI-H460 lung = tested on: NCI-H460 lung
CCRF-CEM leukemia = tested on: CCRF-CEM leukemia
DMS 273 small cell lung = tested on: DMS 273 small cell lung
M19-MEL melanoma = tested on: M19-MEL melanoma
RPMI-8226 leukemia = tested on: RPMI-8226 leukemia
SN12C renal = tested on: SN12C renal
SNB-78 CNS = tested on: SNB-78 CNS
SR leukemia = tested on: SR leukemia
UO-31 renal = tested on: UO-31 renal
HS 578T breast = tested on: HS 578T breast
UACC-257 melanoma = tested on: UACC-257 melanoma
MALME-3M melanoma = tested on: MALME-3M melanoma
OVCAR-3 ovarian = tested on: OVCAR-3 ovarian
SF-268 CNS = tested on: SF-268 CNS
LOX IMVI melanoma = tested on: LOX IMVI melanoma
KM12 colon = tested on: KM12 colon
TK-10 renal = tested on: TK-10 renal
NCI-H522 lung = tested on: NCI-H522 lung
HOP-92 NSCLC = tested on: HOP-92 NSCLC
KM20L2 colon = tested on: KM20L2 colon
MDA-N = tested on: MDA-N
DU-145 prostate = tested on: DU-145 prostate
LXFL 529 NSCLC = tested on: LXFL 529 NSCLC
SK-MEL-28 melanoma = tested on: SK-MEL-28 melanoma
SK-MEL-2 melanoma = tested on: SK-MEL-2 melanoma
MOLT-4 leukemia = tested on: MOLT-4 leukemia
COLO 205 colon = tested on: COLO 205 colon
SNB-19 CNS = tested on: SNB-19 CNS
HCT-116 colon = tested on: HCT-116 colon
M14 melanoma = tested on: M14 melanoma
MDA-MB-231 breast = tested on: MDA-MB-231 breast
SW-620 colon = tested on: SW-620 colon
PC-3 prostate = tested on: PC-3 prostate
HL-60(TB) leukemia = tested on: HL-60(TB) leukemia
DMS 114 small cell lung = tested on: DMS 114 small cell lung
RXF 393 renal = tested on: RXF 393 renal
MCF7 breast = tested on: MCF7 breast
SNB-75 CNS = tested on: SNB-75 CNS
T-47D breast = tested on: T-47D breast
EKVX NSCLC = tested on: EKVX NSCLC
SK-MEL-5 melanoma = tested on: SK-MEL-5 melanoma
IGROV1 ovarian = tested on: IGROV1 ovarian
NCI-H226 lung = tested on: NCI-H226 lung
SF-539 CNS = tested on: SF-539 CNS
HCT-15 colon = tested on: HCT-15 colon
UACC-62 melanoma = tested on: UACC-62 melanoma
NCI/ADR-RES ovarian = tested on: NCI/ADR-RES ovarian
ACHN renal = tested on: ACHN renal
HCC-2998 colon = tested on: HCC-2998 colon
786-0 renal = tested on: 786-0 renal
K-562 leukemia = tested on: K-562 leukemia
SK-OV-3 ovarian = tested on: SK-OV-3 ovarian
HOP-62 NSCLC = tested on: HOP-62 NSCLC
SF-295 CNS = tested on: SF-295 CNS
CAKI-1 renal = tested on: CAKI-1 renal
HOP-18 NSCLC = tested on: HOP-18 NSCLC

SMILES: Cc1cc(NC(=O)NC(=O)c2ccccc2NC(=O)C(C)N)ccc1Oc1ncc(Br)cn1 (stereo not drawn)
- TGI (DLD-1 colon): > 100 µM
- TGI (U251 CNS): 24.4 µM
- TGI (HT29 colon): 3.51 µM
- TGI (OVCAR-8 ovarian): 15.3 µM
- TGI (MDA-MB-435): 0.257 µM
- TGI (A498 renal): 0.529 µM
- TGI (A549 NSCLC): 35.8 µM
- TGI (OVCAR-5 ovarian): 25.1 µM
- TGI (OVCAR-4 ovarian): 36.7 µM
- TGI (BT-549 breast): 48.9 µM
- TGI (NCI-H23 lung): 8.56 µM
- TGI (NCI-H460 lung): 19.2 µM
- TGI (CCRF-CEM leukemia): 17.4 µM
- TGI (DMS 273 small cell lung): > 32.7 µM
- TGI (M19-MEL melanoma): > 100 µM
- TGI (RPMI-8226 leukemia): 61.5 µM
- TGI (SN12C renal): 19.5 µM
- TGI (SNB-78 CNS): 92.6 µM
- TGI (SR leukemia): 45.3 µM
- TGI (UO-31 renal): 26.9 µM
- TGI (HS 578T breast): 1.49 µM
- TGI (UACC-257 melanoma): 32.6 µM
- TGI (MALME-3M melanoma): 33.4 µM
- TGI (OVCAR-3 ovarian): 0.111 µM
- TGI (SF-268 CNS): 56.3 µM
- TGI (LOX IMVI melanoma): 33.5 µM
- TGI (KM12 colon): 19.4 µM
- TGI (TK-10 renal): 39.4 µM
- TGI (NCI-H522 lung): 0.334 µM
- TGI (HOP-92 NSCLC): 25.6 µM
- TGI (KM20L2 colon): 0.459 µM
- TGI (MDA-N): 0.148 µM
- TGI (DU-145 prostate): 19.2 µM
- TGI (LXFL 529 NSCLC): > 100 µM
- TGI (SK-MEL-28 melanoma): 37.4 µM
- TGI (SK-MEL-2 melanoma): 6.58 µM
- TGI (MOLT-4 leukemia): 52.2 µM
- TGI (COLO 205 colon): 0.852 µM
- TGI (SNB-19 CNS): 56.3 µM
- TGI (HCT-116 colon): 27.2 µM
- TGI (M14 melanoma): 3.71 µM
- TGI (MDA-MB-231 breast): 11.8 µM
- TGI (SW-620 colon): 44.4 µM
- TGI (PC-3 prostate): 15.2 µM
- TGI (HL-60(TB) leukemia): 0.558 µM
- TGI (DMS 114 small cell lung): 6.17 µM
- TGI (RXF 393 renal): 0.776 µM
- TGI (MCF7 breast): 58.2 µM
- TGI (SNB-75 CNS): 2.47 µM
- TGI (T-47D breast): 29.6 µM
- TGI (EKVX NSCLC): 28.6 µM
- TGI (SK-MEL-5 melanoma): 9.49 µM
- TGI (IGROV1 ovarian): 29.7 µM
- TGI (NCI-H226 lung): 2.88 µM
- TGI (SF-539 CNS): 0.0431 µM
- TGI (HCT-15 colon): 39.1 µM
- TGI (UACC-62 melanoma): 15.5 µM
- TGI (NCI/ADR-RES ovarian): 15.9 µM
- TGI (ACHN renal): 27.4 µM
- TGI (HCC-2998 colon): 4.38 µM
- TGI (786-0 renal): 9.56 µM
- TGI (K-562 leukemia): > 38.5 µM
- TGI (SK-OV-3 ovarian): 15.9 µM
- TGI (HOP-62 NSCLC): 4.3 µM
- TGI (SF-295 CNS): 4.91 µM

SMILES: C/C=C/c1cc(=O)c([C@@H]2OC(=O)c3cc(OC)cc(OC)c32)co1
- TGI (HT29 colon): > 100 µM
- TGI (OVCAR-8 ovarian): > 100 µM
- TGI (A549 NSCLC): > 100 µM
- TGI (OVCAR-4 ovarian): > 100 µM
- TGI (NCI-H23 lung): > 100 µM
- TGI (NCI-H460 lung): > 100 µM
- TGI (CCRF-CEM leukemia): > 100 µM
- TGI (M19-MEL melanoma): > 100 µM
- TGI (RPMI-8226 leukemia): > 100 µM
- TGI (SR leukemia): > 100 µM
- TGI (UO-31 renal): > 100 µM
- TGI (UACC-257 melanoma): > 100 µM
- TGI (OVCAR-3 ovarian): 64.3 µM
- TGI (SF-268 CNS): > 100 µM
- TGI (KM12 colon): > 100 µM
- TGI (TK-10 renal): > 100 µM
- TGI (HOP-92 NSCLC): > 100 µM
- TGI (KM20L2 colon): > 100 µM
- TGI (LXFL 529 NSCLC): 91.6 µM
- TGI (SK-MEL-28 melanoma): > 100 µM
- TGI (SK-MEL-2 melanoma): > 100 µM
- TGI (MOLT-4 leukemia): > 100 µM
- TGI (COLO 205 colon): 55.5 µM
- TGI (SNB-19 CNS): > 100 µM
- TGI (HCT-116 colon): > 100 µM
- TGI (M14 melanoma): > 100 µM
- TGI (SW-620 colon): > 100 µM
- TGI (HL-60(TB) leukemia): > 100 µM
- TGI (DMS 114 small cell lung): 56.6 µM
- TGI (RXF 393 renal): > 100 µM
- TGI (SNB-75 CNS): 60.3 µM
- TGI (EKVX NSCLC): > 100 µM
- TGI (SK-MEL-5 melanoma): > 100 µM
- TGI (IGROV1 ovarian): > 100 µM
- TGI (NCI-H226 lung): > 100 µM
- TGI (SF-539 CNS): > 100 µM
- TGI (UACC-62 melanoma): > 100 µM
- TGI (ACHN renal): > 100 µM
- TGI (CAKI-1 renal): > 100 µM
- TGI (HCC-2998 colon): 90 µM
- TGI (K-562 leukemia): > 100 µM
- TGI (HOP-62 NSCLC): > 100 µM
- TGI (SF-295 CNS): > 100 µM

SMILES: C=C1CC2OC(=O)C(=C)C2C(O)C2C(=C)CCC12 (stereo not drawn)
- TGI (DLD-1 colon): 30.9 µM
- TGI (U251 CNS): 30.8 µM
- TGI (HT29 colon): 15.1 µM
- TGI (OVCAR-8 ovarian): 18 µM
- TGI (A498 renal): 17.5 µM
- TGI (A549 NSCLC): 32.2 µM
- TGI (OVCAR-5 ovarian): 24.7 µM
- TGI (NCI-H23 lung): 27 µM
- TGI (NCI-H460 lung): 27.8 µM
- TGI (CCRF-CEM leukemia): 10.2 µM
- TGI (DMS 273 small cell lung): 22.2 µM
- TGI (M19-MEL melanoma): 20.1 µM
- TGI (RPMI-8226 leukemia): 14.3 µM
- TGI (SN12C renal): 18.1 µM
- TGI (SNB-78 CNS): 20.6 µM
- TGI (SR leukemia): 14 µM
- TGI (UO-31 renal): 29.7 µM
- TGI (UACC-257 melanoma): 18.8 µM
- TGI (MALME-3M melanoma): 45.1 µM
- TGI (OVCAR-3 ovarian): 22.3 µM
- TGI (SF-268 CNS): 32.3 µM
- TGI (KM12 colon): 22.6 µM
- TGI (TK-10 renal): 28 µM
- TGI (HOP-92 NSCLC): 5.84 µM
- TGI (LXFL 529 NSCLC): 16.7 µM
- TGI (SK-MEL-28 melanoma): 21 µM
- TGI (SK-MEL-2 melanoma): 40.8 µM
- TGI (MOLT-4 leukemia): 11 µM
- TGI (COLO 205 colon): 12.9 µM
- TGI (SNB-19 CNS): 30.8 µM
- TGI (HCT-116 colon): 14.5 µM
- TGI (SW-620 colon): 13.8 µM
- TGI (HOP-18 NSCLC): 29.3 µM
- TGI (HL-60(TB) leukemia): 6.32 µM
- TGI (DMS 114 small cell lung): 16.9 µM
- TGI (RXF 393 renal): 17.7 µM
- TGI (SNB-75 CNS): 21.5 µM
- TGI (EKVX NSCLC): 19.7 µM
- TGI (SK-MEL-5 melanoma): 25.3 µM
- TGI (IGROV1 ovarian): 35.5 µM
- TGI (NCI-H226 lung): 35.5 µM
- TGI (SF-539 CNS): 11.5 µM
- TGI (UACC-62 melanoma): 12.8 µM
- TGI (ACHN renal): 21.2 µM
- TGI (CAKI-1 renal): 19.7 µM
- TGI (HCC-2998 colon): 22.2 µM
- TGI (786-0 renal): 26.7 µM
- TGI (K-562 leukemia): 30.5 µM
- TGI (SK-OV-3 ovarian): 24.9 µM
- TGI (SF-295 CNS): 22.8 µM
